Measured values published in US8883745B2, “C—glycolipids with enhanced Th-1 profile” (New York University, priority 2006, dated 2014).

How the values were obtained:
Type in all cases: in vivo
IFN-γ = IFN-γ levels in sera upon i.v. glycolipid administration to BALB/c mice (ELISA); parameters: IFN-γ levels, test 1 / IFN-γ levels, test 2 / IFN-γ levels, average / IFN-γ levels, Total: unit not given here; conditions: BALB/c
Method: (§1) Five- to six-week-old female C57BL/6 mice and BALB/c mice were purchased from Taconic. Each glycolipid was stored at 1 mg/ml in 100% DMSO. Mice were injected intravenously with 1 μg of each glyocolipid diluted in 200 μL sterile phosphate buffered saline (PBS). At indicated time points, sera were collected from each animal, and concentrations of IFN-γ, IL-4, and IL-12 in the sera were evaluated by enzyme-linked immunosorbent assay (ELISA). Serum concentrations of IFN-γ, IL-4, and IL-12 were evaluated using an ELISA kit (eBioscience, San Diego, Calif.). Briefly, 96 well flat-bottom ELISA plates (NUNC) were coated with capture antibody according to the manufacture's recommendation and incubated overnight at 4° C. The plates were washed with PBS+0.05% Tween 20 (PBS-T), then incubated with manufacturer provided blocking solution for 1 hr at room temperature to block non-specific binding sites. After washing with PBS-T, sera diluted 1:10 was added to the wells and incubated for 2 hrs at room temperature. Plates were then incubated at room temperature for 1 hr with biotintylated detection antibody, washed, incubated with avidin conjugated to horse radish peroxidase (HRP) for 30 min at room temperature, washed, and finally incubated with tetramethylbenzidine substrate solution in the dark for 10 minutes at room temperature. The antibodies, avidin-HRP, and substrate solution were all diluted according to the manufacture's recommendation. Reactions were stopped with 2.0N sulfuric acid and the cytokine concentration in each well was determined by comparing the absorbance at 450 nm in each well to known standards. The levels of Th1- and Th2-type cytokines were determined in two different genetic backgrounds, i.e., in C57BL/6 mice and BALB/c mice. The following compounds were administered: A=compound (A-1 trans-conformer), B=compound (A-2), C=compound (A-3), D=compound (A-4), E=compound (A-5), Z=control (PBS alone), CRONY=α-C-GalCer, KRN=α-GalCer, GCK109 (A-1 trans-conformer), GCK151 (A-1 cis-conformer), GCK152 (A-7). The levels of cytokines were measured at 0, 2, 6, 12, 24, 48, and 72 hours after the compound administration. The levels of Th1-type cytokines IFN-γ and IL-12 are summarized in FIGS. 2A-C and 3A-C, respectively. Table 7 provides IFN-γ/IL-4 and IL-12/IL-4 ratios for various compounds, which can be used as indicators of their ability to selectively stimulate Th1-type immune responses.

IL-12 = IL-12 levels in sera upon i.v. glycolipid administration to C57BL/6 mice (ELISA); parameters: IL-12 levels, test 1 / IL-12 levels, test 2 / IL-12 levels, average / IL-12 levels, Total: unit not given here
Method: as §1

IL-4 [1] = assay: IL-4 levels in sera upon i.v. glycolipid administration to BALB/c mice (ELISA); parameters: unit not given here
Method: as §1

IL-4 [2] = assay: IL-4 levels in sera upon i.v. glycolipid administration to C57BL/6 mice (ELISA); parameters: unit not given here
Method: as §1

CCCCCCCCCCCCCCCCCCCCCCCCCC(=O)N[C@@H](CC[C@H]1O[C@H](CO)[C@H](O)[C@H](O)[C@H]1O)[C@H](O)[C@H](O)CCCCCCCCCCCCCC [CRONY, reference compound]
IFN-γ/IL-4 (BALB/c) (IFN-γ; ratio calculated from Tables 1-6): 34 | IFN-γ levels, average (IFN-γ; serum, hour 0): 27 | IFN-γ levels, test 1 (IFN-γ; serum, hour 0): 27 | IFN-γ levels, test 2 (IFN-γ; serum, hour 0): 27 | IFN-γ levels, average (IFN-γ; serum, hour 2): 150 | IFN-γ levels, test 1 (IFN-γ; serum, hour 2): 122 | IFN-γ levels, test 2 (IFN-γ; serum, hour 2): 178 | IFN-γ levels, average (IFN-γ; serum, hour 6): 3075.5 | IFN-γ levels, test 1 (IFN-γ; serum, hour 6): 3114 | IFN-γ levels, test 2 (IFN-γ; serum, hour 6): 3037 | IFN-γ levels, average (IFN-γ; serum, hour 12): 5611 | IFN-γ levels, test 1 (IFN-γ; serum, hour 12): 6314 | IFN-γ levels, test 2 (IFN-γ; serum, hour 12): 4908 | IFN-γ levels, average (IFN-γ; serum, hour 24): 10680 | IFN-γ levels, test 1 (IFN-γ; serum, hour 24): 11900 | IFN-γ levels, test 2 (IFN-γ; serum, hour 24): 9460 | IFN-γ levels, average (IFN-γ; serum, hour 48): 334 | IFN-γ levels, test 1 (IFN-γ; serum, hour 48): 320 | IFN-γ levels, test 2 (IFN-γ; serum, hour 48): 348 | IFN-γ levels, average (IFN-γ; serum, hour 72): 59.5 | IFN-γ levels, test 1 (IFN-γ; serum, hour 72): 50 | IFN-γ levels, test 2 (IFN-γ; serum, hour 72): 69 | IFN-γ levels, Total (IFN-γ; serum, total over hours 0-72): 19938 | IL-12/IL-4 (B6) (IL-12; C57BL/6, ratio calculated from Tables 1-6): 2 | IL-12 levels, average (IL-12; C57BL/6, serum, hour 0): 5 | IL-12 levels, test 1 (IL-12; C57BL/6, serum, hour 0): 5 | IL-12 levels, test 2 (IL-12; C57BL/6, serum, hour 0): 5 | IL-12 levels, average (IL-12; C57BL/6, serum, hour 2): 107 | IL-12 levels, test 1 (IL-12; C57BL/6, serum, hour 2): 0 | IL-12 levels, test 2 (IL-12; C57BL/6, serum, hour 2): 214 | IL-12 levels, average (IL-12; C57BL/6, serum, hour 6): 472.5 | IL-12 levels, test 1 (IL-12; C57BL/6, serum, hour 6): 560 | IL-12 levels, test 2 (IL-12; C57BL/6, serum, hour 6): 385 | IL-12 levels, average (IL-12; C57BL/6, serum, hour 12): 675.5 | IL-12 levels, test 1 (IL-12; C57BL/6, serum, hour 12): 630 | IL-12 levels, test 2 (IL-12; C57BL/6, serum, hour 12): 721 | IL-12 levels, average (IL-12; C57BL/6, serum, hour 24): 117.5 | IL-12 levels, test 1 (IL-12; C57BL/6, serum, hour 24): 235 | IL-12 levels, test 2 (IL-12; C57BL/6, serum, hour 24): 0 | IL-12 levels, average (IL-12; C57BL/6, serum, hour 48): 0 | IL-12 levels, test 1 (IL-12; C57BL/6, serum, hour 48): 0 | IL-12 levels, test 2 (IL-12; C57BL/6, serum, hour 48): 0 | IL-12 levels, average (IL-12; C57BL/6, serum, hour 72): 0 | IL-12 levels, test 1 (IL-12; C57BL/6, serum, hour 72): 0 | IL-12 levels, test 2 (IL-12; C57BL/6, serum, hour 72): 0 | IL-12 levels, Total (IL-12; C57BL/6, serum, total over hours 0-72): 1379 | IL-4 level, average (IL-4 [1]; hour 0): 27 | IL-4 level, test 1 (IL-4 [1]; hour 0): 27 | IL-4 level, test 2 (IL-4 [1]; hour 0): 27 | IL-4 level, average (IL-4 [1]; hour 2): 262.5 | IL-4 level, test 1 (IL-4 [1]; hour 2): 264 | IL-4 level, test 2 (IL-4 [1]; hour 2): 261 | IL-4 level, average (IL-4 [1]; hour 6): 87 | IL-4 level, test 1 (IL-4 [1]; hour 6): 80 | IL-4 level, test 2 (IL-4 [1]; hour 6): 94 | IL-4 level, average (IL-4 [1]; hour 12): 49 | IL-4 level, test 1 (IL-4 [1]; hour 12): 45 | IL-4 level, test 2 (IL-4 [1]; hour 12): 53 | IL-4 level, average (IL-4 [1]; hour 24): 47.5 | IL-4 level, test 1 (IL-4 [1]; hour 24): 49 | IL-4 level, test 2 (IL-4 [1]; hour 24): 46 | IL-4 level, average (IL-4 [1]; hour 48): 46.5 | IL-4 level, test 1 (IL-4 [1]; hour 48): 45 | IL-4 level, test 2 (IL-4 [1]; hour 48): 48 | IL-4 level, average (IL-4 [1]; hour 72): 67 | IL-4 level, test 1 (IL-4 [1]; hour 72): 67 | IL-4 level, test 2 (IL-4 [1]; hour 72): 67 | IL-4 level, Total (IL-4 [1]; total over hours 0-72): 588 | IL-4 level, average (IL-4 [2]; hour 0): 46 | IL-4 level, test 1 (IL-4 [2]; hour 0): 46 | IL-4 level, test 2 (IL-4 [2]; hour 0): 46 | IL-4 level, average (IL-4 [2]; hour 2): 464 | IL-4 level, test 1 (IL-4 [2]; hour 2): 286 | IL-4 level, test 2 (IL-4 [2]; hour 2): 642 | IL-4 level, average (IL-4 [2]; hour 6): 73 | IL-4 level, test 1 (IL-4 [2]; hour 6): 48 | IL-4 level, test 2 (IL-4 [2]; hour 6): 98 | IL-4 level, average (IL-4 [2]; hour 12): 34 | IL-4 level, test 1 (IL-4 [2]; hour 12): 12 | IL-4 level, test 2 (IL-4 [2]; hour 12): 56 | IL-4 level, average (IL-4 [2]; hour 24): 23 | IL-4 level, test 1 (IL-4 [2]; hour 24): 16 | IL-4 level, test 2 (IL-4 [2]; hour 24): 30 | IL-4 level, average (IL-4 [2]; hour 48): 11.5 | IL-4 level, test 1 (IL-4 [2]; hour 48): 17 | IL-4 level, test 2 (IL-4 [2]; hour 48): 6 | IL-4 level, average (IL-4 [2]; hour 72): 21.5 | IL-4 level, test 1 (IL-4 [2]; hour 72): 15 | IL-4 level, test 2 (IL-4 [2]; hour 72): 28 | IL-4 level, Total (IL-4 [2]; total over hours 0-72): 674
